Measured values: patent publication US11286268B1, “EIF4E-inhibiting compounds and methods” (EFFECTOR THERAPEUTICS, INC., priority 2019, dated 2022)

These molecules were tested against recombinant eIF4E (Homo sapiens (Human), UniProt P06730) (assay: Fluorescence polarization competition assay for eIF4E binding potency). Settings: inhibition of eIF4E/EDA-m7GDP-ATTO-550 binding; calculated IC50 values, Table 4B; read-out: IC50.
Method in brief: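 IC50 values reflect 50% displacement of 20 nM EDA-m7GDP-ATTO-550 from 75 nM eIF4E, measured by fluorescence polarization after 30 min at room temperature. Buffer: 20 mM Tris pH 7.5, 100 mM NaCl, 1 mM DTT, 0.02% Tween-20; 1% DMSO.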

Sequence of recombinant eIF4E (P06730 whole entry): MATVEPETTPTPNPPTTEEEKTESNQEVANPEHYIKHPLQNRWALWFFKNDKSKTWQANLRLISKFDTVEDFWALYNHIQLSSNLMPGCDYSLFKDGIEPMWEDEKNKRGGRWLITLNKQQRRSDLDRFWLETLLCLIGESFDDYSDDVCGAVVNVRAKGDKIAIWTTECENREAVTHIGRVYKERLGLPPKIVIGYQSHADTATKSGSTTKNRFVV

IC50 [nM] | Structure (SMILES)
35.1 | Cc1nc2cc(C(F)(F)F)c(N3CCN(CCC(F)(F)F)CC3)c(C#N)c2c(=O)n1CCOc1ccc(Cl)cc1-c1ccnc2c(C(=O)O)csc12 [compound 1293]
13.4 | Cc1cc(-c2cc(Cl)ccc2OCCn2c(C)nc3cc(S(C)(=O)=O)c(N4CCN(C)CC4)c(C#N)c3c2=O)c2scc(C(=O)O)c2n1 [compound 1295]
37.8 | Cc1sc2c(-c3cc(Cl)ccc3OCCn3c(C)nc4c(C)nc(N5CCN(C)CC5)c(C#N)c4c3=O)ccnc2c1C(=O)O [compound 1297]
38.3 | Cc1nc2cc(C(F)(F)F)c(CCN(C)C)c(C#N)c2c(=O)n1CC#Cc1ccc(Cl)cc1-c1ccnc2c(C(=O)O)csc12 [compound 1298]
32.1 | Cc1nc2cc(C(F)(F)F)c(N3CCN(C)CC3)cc2c(=O)n1CCOc1ccc(Cl)cc1-c1ccnc2c(C(=O)NS(C)(=O)=O)csc12 [compound 1299]
15.5 | Cc1nc2cnc(N3CCN(C)C4CC43)c(C#N)c2c(=O)n1CCOc1ccc(Cl)cc1-c1ccnc2c(C(=O)O)csc12 (stereo not drawn) [compound 1301]
36.6 | Cc1nc2cnc(N3CCN(CC(F)F)CC3)c(C#N)c2c(=O)n1CCOc1ccc(Cl)cc1-c1ccnc2c(C(=O)O)csc12 [compound 1303]
41.5 | Cc1nc2cnc(N3CCN(CCC(F)(F)F)CC3)c(C#N)c2c(=O)n1CCOc1ccc(Cl)cc1-c1ccnc2c(C(=O)O)csc12 [compound 1308]
37.2 | Cc1nc2cnc(N3CCN(C(C)(C)C(F)F)CC3)c(C#N)c2c(=O)n1CCOc1ccc(Cl)cc1-c1ccnc2c(C(=O)O)csc12 [compound 1309]
21.3 | Cc1nc2cnc(N3CCN(C4(C(F)F)CC4)CC3)c(C#N)c2c(=O)n1CCOc1ccc(Cl)cc1-c1ccnc2c(C(=O)O)csc12 [compound 1310]
8.29 | Cc1nc2cnc(N3CCN(C(C)C(F)F)CC3)c(C#N)c2c(=O)n1CCOc1ccc(Cl)cc1-c1ccnc2c(C(=O)O)csc12 (stereo not drawn) [compound 1312]
27.7 | Cc1nc2cnc(N(C)C3CCN(C4COC4)CC3)c(C#N)c2c(=O)n1CCOc1ccc(Cl)cc1-c1ccnc2c(C(=O)O)csc12 [compound 1320]
60.2 | Cc1nc2cnc(N3CCN(C4COC4)CC3)c(C#N)c2c(=O)n1CC#Cc1ccc(Cl)cc1-c1ccnc2c(C(=O)O)csc12 [compound 1321]
73 | Cc1nc2cnc(N(C)C3CCN(C)C3)c(C#N)c2c(=O)n1CCOc1ccc(Cl)cc1-c1ccnc2c(C(=O)O)csc12 (stereo not drawn) [compound 1323]
27.1 | Cc1nc2cnc(-c3ccc(CN(C)C)nc3)c(C#N)c2c(=O)n1CCOc1ccc(Cl)cc1-c1ccnc2c(C(=O)O)csc12 [compound 1325]
12.8 | Cc1nc2cnc(C#CCN(C)CCF)c(C#N)c2c(=O)n1CCOc1ccc(Cl)cc1-c1ccnc2c(C(=O)O)csc12 [compound 1326]
13 | Cc1nc2cnc(C3CN(C)CCO3)c(C#N)c2c(=O)n1CCOc1ccc(Cl)cc1-c1ccnc2c(C(=O)O)csc12 (stereo not drawn) [compound 1330]
34.5 | Cc1nc2cnc(C3=C(C(C)(C)C)CN(C)C3)c(C#N)c2c(=O)n1CCOc1ccc(Cl)cc1-c1ccnc2c(C(=O)O)csc12 [compound 1332]
26.2 | Cc1nc2cnc(N3CCN(CCF)C(C)(C)C3)c(C#N)c2c(=O)n1CCOc1ccc(Cl)cc1-c1ccnc2c(C(=O)O)csc12 [compound 1333]
51.9 | Cc1nc2cnc(N3CCN(C)C4(CC4)C3)c(C#N)c2c(=O)n1CCOc1ccc(Cl)cc1-c1ccnc2c(C(=O)O)csc12 [compound 1337]
9.5 | Cc1nc2cnc(N3CCN(CCF)C4(CC4)C3)c(C#N)c2c(=O)n1CCOc1ccc(Cl)cc1-c1ccnc2c(C(=O)O)csc12 [compound 1338]
36.4 | Cc1nc2cnc(N3CCN(CCS(C)(=O)=O)CC3)c(C#N)c2c(=O)n1CCOc1ccc(Cl)cc1-c1ccnc2c(C(=O)O)csc12 [compound 1339]
40.6 | Cc1nc2cnc(N3CCN(C(C)(C)CC#N)CC3)c(C#N)c2c(=O)n1CCOc1ccc(Cl)cc1-c1ccnc2c(C(=O)O)csc12 [compound 1343]

Continued, molecule first:

Structure (SMILES) | IC50 [nM]
Cc1sc2c(-c3cc(Cl)ccc3OCCn3c(C)nc4cc(C(F)(F)F)c(CC5CN(C)C5)c(C#N)c4c3=O)ccnc2c1C(=O)O [compound 1283] | 33.5
Cc1ncc(F)cc1-c1c(CN(C)C)cc2nc(C)n(CCOc3ccc(Cl)cc3-c3ccnc4c(C(=O)O)c(C)sc34)c(=O)c2c1C#N [compound 1284] | > 1000
Cc1sc2c(-c3cc(Cl)ccc3OCCn3c(C)nc4cc(C(F)(F)F)c(N5CCN(C)CC5)c(C#N)c4c3=O)ccc(F)c2c1C(=O)O [compound 1286] | 34.2
Cc1nc2cc(C(F)(F)F)c(CCN3CC(F)(F)C3)c(C#N)c2c(=O)n1CCOc1ccc(Cl)cc1-c1ccnc2c(C(=O)O)csc12 [compound 1287] | 42.4
Cc1nc2cc(C(F)(F)F)c(CCN(C)CC(F)F)c(C#N)c2c(=O)n1CCOc1ccc(Cl)cc1-c1ccnc2c(C(=O)O)csc12 [compound 1288] | 36.7
Cc1nc2cc(C(F)(F)F)c(N3CCN(CC(F)F)CC3)nc2c(=O)n1CC#Cc1ccc(Cl)cc1-c1ccnc2c(C(=O)O)csc12 [compound 1290] | 149
Cc1nc2cc(C(F)(F)F)c(N3CCN(C4CC4)CC3)c(C#N)c2c(=O)n1CCOc1ccc(Cl)cc1-c1ccnc2c(C(=O)O)csc12 [compound 1291] | 41.2
Cc1nc2cc(C(F)(F)F)c(N3CCN(C4CC(F)(F)C4)CC3)c(C#N)c2c(=O)n1CCOc1ccc(Cl)cc1-c1ccnc2c(C(=O)O)csc12 [compound 1292] | 52.3
Cc1sc2c(-c3cc(Cl)ccc3OCCn3c(C)nc4cc(S(C)(=O)=O)c(N5CCN(C)CC5)c(C#N)c4c3=O)ccnc2c1C(=O)O [compound 1294] | 55.9
Cc1nc2cc(S(C)(=O)=O)c(N3CCN(C)CC3)c(C#N)c2c(=O)n1CCOc1ccc(Cl)cc1-c1ccnc2c(C(=O)O)csc12 [compound 1296] | 27
Cc1nc2cc(C(F)(F)F)c(N3CCN(C)CC3)nc2c(=O)n1CCOc1ccc(Cl)cc1-c1ccnc2c(C(=O)NS(C)(=O)=O)csc12 [compound 1300] | 18.1
Cc1nc2cnc(N3CCN(CCF)CC3)c(C#N)c2c(=O)n1CCOc1ccc(Cl)cc1-c1ccnc2c(C(=O)O)csc12 [compound 1302] | 30.7
Cc1nc2cnc(N3CCN(CC(F)(F)F)CC3)c(C#N)c2c(=O)n1CCOc1ccc(Cl)cc1-c1ccnc2c(C(=O)O)csc12 [compound 1304] | 18.5
Cc1nc2cnc(N3CCN(C)C(C(F)F)C3)c(C#N)c2c(=O)n1CCOc1ccc(Cl)cc1-c1ccnc2c(C(=O)O)csc12 (stereo not drawn) [compound 1305] | 26.5
Cc1nc2cnc(N3CCN(C4CC4)CC3)c(C#N)c2c(=O)n1CCOc1ccc(Cl)cc1-c1ccnc2c(C(=O)O)csc12 [compound 1306] | 38.9
Cc1nc2cnc(N3CCN(C4CC(F)(F)C4)CC3)c(C#N)c2c(=O)n1CCOc1ccc(Cl)cc1-c1ccnc2c(C(=O)O)csc12 [compound 1307] | 54.2
Cc1nc2cnc(N3CCN4CC(F)(F)CC4C3)c(C#N)c2c(=O)n1CCOc1ccc(Cl)cc1-c1ccnc2c(C(=O)O)csc12 (stereo not drawn) [compound 1311] | 13.3

Structure (SMILES) | IC50 [nM]
Cc1nc2cnc(N3CCN(C(C)(C)C)CC3)c(C#N)c2c(=O)n1CCOc1ccc(Cl)cc1-c1ccnc2c(C(=O)O)csc12 [compound 1313] | 42.6
Cc1nc2cnc(N3CC4(C3)CN(C3CC3)C4)c(C#N)c2c(=O)n1CCOc1ccc(Cl)cc1-c1ccnc2c(C(=O)O)csc12 [compound 1314] | 18.1
Cc1nc2cnc(N3CCN(C(C)C(F)(F)F)CC3)c(C#N)c2c(=O)n1CCOc1ccc(Cl)cc1-c1ccnc2c(C(=O)O)csc12 (stereo not drawn) [compound 1315] | 13.1
Cc1nc2cnc(N3CCN(C(C)(C)C(F)(F)F)CC3)c(C#N)c2c(=O)n1CCOc1ccc(Cl)cc1-c1ccnc2c(C(=O)O)csc12 [compound 1316] | 32.8
Cc1nc2cnc(N3CCN(CC(C)(C)F)CC3)c(C#N)c2c(=O)n1CCOc1ccc(Cl)cc1-c1ccnc2c(C(=O)O)csc12 [compound 1317] | 33.5
Cc1nc2cnc(N(C)C3CCN(C4CC4)CC3)c(C#N)c2c(=O)n1CCOc1ccc(Cl)cc1-c1ccnc2c(C(=O)O)csc12 [compound 1319] | 13.6
Cc1nc2cnc(N3CC4(C3)CN(C3COC3)C4)c(C#N)c2c(=O)n1CC#Cc1ccc(Cl)cc1-c1ccnc2c(C(=O)O)csc12 [compound 1322] | 11.2
Cc1nc2cnc(C#CCN(C)CC(F)(F)F)c(C#N)c2c(=O)n1CCOc1ccc(Cl)cc1-c1ccnc2c(C(=O)O)csc12 [compound 1327] | 19.3
Cc1nc2cnc(/C=C/CN(C)CCF)c(C#N)c2c(=O)n1CCOc1ccc(Cl)cc1-c1ccnc2c(C(=O)O)csc12 [compound 1328] | 24.8
Cc1nc2cnc(C#CC3(N(C)C)CC3)c(C#N)c2c(=O)n1CCOc1ccc(Cl)cc1-c1ccnc2c(C(=O)O)csc12 [compound 1329] | 35.2
Cc1nc2cncc(SCCN(C)C)c2c(=O)n1CCOc1ccc(Cl)cc1-c1ccnc2c(C(=O)O)csc12 [compound 1331] | 91.8
Cc1nc2cnc(N3CCN(C)C(C(F)(F)F)C3)c(C#N)c2c(=O)n1CCOc1ccc(Cl)cc1-c1ccnc2c(C(=O)O)csc12 (stereo not drawn) [compound 1334] | 51.3
Cc1nc2cnc(N3CCN(C)CC3C)c(C#N)c2c(=O)n1CCOc1ccc(Cl)cc1-c1ccnc2c(C(=O)O)csc12 (stereo not drawn) [compound 1335] | 12.8
Cc1nc2cnc(N3CCN(C4(CF)CC4)CC3)c(C#N)c2c(=O)n1CCOc1ccc(Cl)cc1-c1ccnc2c(C(=O)O)csc12 [compound 1336] | 13
Cc1nc2cnc(N3CC(N4CCC(F)(F)CC4)C3)c(C#N)c2c(=O)n1CCOc1ccc(Cl)cc1-c1ccnc2c(C(=O)O)csc12 [compound 1340] | 44.2
Cc1nc2cnc(N3CC(N4CC(F)(F)C4)C3)c(C#N)c2c(=O)n1CCOc1ccc(Cl)cc1-c1ccnc2c(C(=O)O)csc12 [compound 1341] | 21.5
Cc1nc2cnc(N3CCN(C)C(CC#N)C3)c(C#N)c2c(=O)n1CCOc1ccc(Cl)cc1-c1ccnc2c(C(=O)O)csc12 (stereo not drawn) [compound 1342] | 30.4
